Source: patent US20220162262A1, “NOVEL COMPOUNDS AND THERAPEUTIC USES THEREOF” (priority 2019, published 2022)
Positions of bridges follow the written chain, without caps; N, C: chain ends. Non-standard residues stand in square brackets, D forms with d. Residues, ends and D or L forms follow the SMILES beside them. *: point of attachment. X1 = CC(=O)NC1[C@H](OCCCNC(=O)COc2cc(C(=O)*)cc(-c3ccccc3)c2)OC(CO)[C@@H](O[C@@H]2OC(CO)[C@H](O)[C@H](O[C@H]3OC(CO)[C@H](O)C(O)[C@@H]3O)C2O)[C@@H]1O; X2 = CC(=O)NC1C(O)[C@H](OC2OC(CO)C(O)[C@H](O[C@H]3OC(CO)C(O)C(O)C3O)C2O)C(CO)O[C@H]1OCCCNC(=O)COc1cc(C(=O)*)cc(-c2ccccc2)c1; PEG8 = NCCOCCOCCOCCOCCOCCOCCOCCOCCC(=O)O; Gly(octyl) = CCCCCCCC[C@H](N)C(=O)O; Dab = NCC[C@H](N)C(=O)O; Dap = NC[C@H](N)C(=O)O; Ahx = NCCCCCC(=O)O

How the values were obtained:
Assay type in all cases: cell-based
[1] = system: E. coli K1:018ac:H7 (ATCC 700973); test: Flow cytometric anti-Gal IgM antibody recruitment assay, E. coli; settings: for E. coli recruitment assay, side by side comparison with reference example (FIG. 2): 20 μM, in triplicate, E. coli ATCC 700973
Experimental: (§1) Flow Cytometric Antibody Recruitment Assay Using an Anti-Galα1-3Galβ1-4GlcNAc (Anti-Gal) Antibody
(§2) A secondary fluorescently labelled anti-IgM antibody was used to detect the anti-Gal antibody binding.
(§3) The assays were carried out in polystyrene 96-well U bottom plates (Costar). Frozen stocks of bacteria in mid-exponential phase were thawed, centrifuged and resuspended in LB broth, Miller (Fisher BP1426-500) at OD595=0.2. The bacteria was grown to mid-exponential phase (OD595=0.4), washed once with Hank's Balanced Salt Solution with calcium and magnesium (HBSS+/+) and then resuspended in HBSS+/+ at a bacterial D595=0.6. Bacteria was diluted ⅙ and placed in the 96-well U bottom plate. The bacteria were then incubated for 45 minutes with the compounds of Example 1-4 and reference compounds A-D (see Table 1) at 20 μM concentrations, Polymyxin B at 20 μM concentrations, or buffer alone (vehicle control), at room temperature and shaking at 450 rpm. The bacteria were then washed three times with 200 μL HBSS+/+, prior to adding 50 μL of the mouse/human chimeric anti-Gal IgM antibody M86 (Absolute Antibody Ab00532) at a final concentration of 25 μg/mL in HBSS+/+. The samples were incubated for 1 hour at room temperature shaking at 450 rpm. The bacteria were washed three times as above, prior to adding 100 μL of a FITC-labeled anti-human IgM secondary antibody (Biolegend 314506) at 10 μg/mL in HBSS+/+ and incubating at room temperature for 1 hour at 450 rpm. After three final washes with 200 μL HBSS+/+, the bacteria were resuspended in 200 μL HBSS+/+ and evaluated for anti-Gal antibody binding on a Cytoflex flow cytometer (Beckman Coulter). 50,000 counts of bacterial particles were sampled and the median fluorescent shift was recorded in the FITC-A channel. Data from all samples were analysed using Kaluza software (Beckman Coulter).
(§4) The fold shift over background was calculated by dividing the Median Fluorescent Intensity (MFI) obtained in the presence of 20 μM of the Example compounds by the MFI value obtained in the vehicle controls, i.e., the absence of Examples. The higher the fold shift over background, the more anti-Gal was bound to the bacterial surface. The shift in fluorescence intensity (FITC) occurs due to the binding event at each end of the molecule.
(§5) The fold shift over background was calculated by dividing the Median Fluorescent Intensity (MFI) obtained in the presence of 20 μM of the Example compounds (10 μM for Reference Example A and Example 2 against P. aeruginosa ATCC 27853, 6 μM for Reference Example A and Example 2 against P. aeruginosa PAO1 ATCC 15692) by the MFI value obtained in the vehicle controls, i.e., the absence of Examples. […] The shift in fluorescence intensity (FITC) occurs due to the binding event at each end of the molecule.

[2] = system: P. aeruginosa (ATCC 27853); test: Flow cytometric anti-Gal IgM antibody recruitment assay, P. aeruginosa ATCC 27853; settings: for IgM Recruitment (20 μM, Average fold change) P. aeruginosa ATCC 27853: 20 μM compound, anti-Gal M86 IgM, MFI fold shift over vehicle control
Experimental: as §1, §2, §3, §4, §5

[3] = system: K. pneumoniae (NCTC 13465); test: Flow cytometric anti-Gal IgM antibody recruitment assay, K. pneumoniae; settings: for IgM Recruitment (20 μM, Average fold change) K. pneumoniae NCTC 134655: 20 μM compound, anti-Gal M86 IgM, MFI fold shift over vehicle control; for K. pneumoniae recruitment assay, side by side comparison with reference example (FIG. 2): 20 μM, in triplicate
Experimental: as §1, §2, §3, §4
The fold shift over background was calculated by dividing the Median Fluorescent Intensity (MFI) obtained in the presence of 20 μM of the Example compounds (10 μM for Reference Example A and Example 2 against P. aeruginosa ATCC 27853, 6 μM for Reference Example A and Example 2 against P. aeruginosa PAO1 ATCC 15692) by the MFI value obtained in the vehicle controls, i.e., the absence of Examples. The higher the fold shift over background, the more anti-Gal was bound to the bacterial surface. The shift in fluorescence intensity (FITC) occurs due to the binding event at each end of the molecule.

Compound	E. coli recruitment assay, side by side comparison with reference example (FIG. 2) [1]	IgM Recruitment (20 μM, Average fold change) P. aeruginosa ATCC 27853 [2]	IgM Recruitment (20 μM, Average fold change) K. pneumoniae NCTC 134655 [3]	K. pneumoniae recruitment assay, side by side comparison with reference example (FIG. 2) [3]	P. aeruginosa recruitment assay, side by side comparison with reference example (FIG. 2C) ([2]; 20 μM, in triplicate)	IgM Recruitment (20 μM, Average fold change) E. coli K1 ATCC700973 ([1]; 20 μM compound, anti-Gal M86 IgM, MFI fold shift over vehicle control)
CCCCCCCC[C@H](NC(=O)CCCCCNC(=O)CCCCCNC(=O)c1cc(OCC(=O)NCCCO[C@@H]2OC(CO)[C@@H](OC3OC(CO)C(O)[C@H](O[C@H]4OC(CO)C(O)C(O)C4O)C3O)C(O)C2NC(C)=O)cc(-c2ccccc2)c1)C(=O)N[C@@H](CCN)C(=O)N[C@H](C(=O)N[C@@H](CCN)C(=O)N[C@H]1CCNC(=O)[C@H]([C@@H](C)O)NC(=O)[C@H](CCN)NC(=O)[C@H](CCN)NC(=O)[C@H](CC(C)C)NC(=O)[C@@H](Cc2ccccc2)NC(=O)[C@H](CCN)NC1=O)[C@@H](C)O (stereo partly shown) [Example 1] ({X2-Ahx-Ahx}-[Gly(octyl)][Dab]T[Dab][Dab][Dab][dF]L[Dab][Dab]T; lactam 5-C)	superiority over Reference Example B	391 (n = 2) fold change	–	–	–	–
CCCCCCCC[C@H](NC(=O)CCOCCOCCOCCOCCOCCOCCOCCOCCNC(=O)c1cc(OCC(=O)NCCCO[C@@H]2OC(CO)[C@@H](O[C@@H]3OC(CO)[C@H](O)[C@H](O[C@H]4OC(CO)[C@H](O)C(O)[C@@H]4O)C3O)[C@H](O)C2NC(C)=O)cc(-c2ccccc2)c1)C(=O)N[C@@H](CCN)C(=O)N[C@H](C(=O)N[C@H](CO)C(=O)N[C@H]1CCNC(=O)[C@H]([C@@H](C)O)NC(=O)[C@H](CCN)NC(=O)[C@H](CCN)NC(=O)[C@H](CC(C)C)NC(=O)[C@@H](Cc2ccccc2)NC(=O)[C@H](CCN)NC1=O)[C@@H](C)O (stereo partly shown) [Example 3] ({X1-PEG8}-[Gly(octyl)][Dab]T[dS][Dab][Dab][dF]L[Dab][Dab]T; lactam 5-C)	superiority over Reference Example C	1491 (n = 4) fold change	1015 (n = 4) fold change	superiority over Reference Example C	superiority over Reference Example C	–
CCCCCCCC[C@H](NC(=O)CCOCCOCCOCCOCCOCCOCCOCCOCCNC(=O)c1cc(OCC(=O)NCCCO[C@@H]2OC(CO)[C@@H](O[C@@H]3OC(CO)[C@H](O)[C@H](O[C@H]4OC(CO)[C@H](O)C(O)[C@@H]4O)C3O)[C@H](O)C2NC(C)=O)cc(-c2ccccc2)c1)C(=O)N[C@@H](CCN)C(=O)N[C@H](C(=O)N[C@@H](CN)C(=O)N[C@H]1CCNC(=O)[C@H]([C@@H](C)O)NC(=O)[C@H](CCN)NC(=O)[C@H](CCN)NC(=O)[C@H](CC(C)C)NC(=O)[C@@H](Cc2ccccc2)NC(=O)[C@H](CCN)NC1=O)[C@@H](C)O (stereo partly shown) [Example 4] ({X1-PEG8}-[Gly(octyl)][Dab]T[Dap][Dab][Dab][dF]L[Dab][Dab]T; lactam 5-C)	superiority over Reference Example D	–	898 (n = 2) fold change	superiority over Reference Example D	–	–
Polymyxin B [PMB, reference compound]	–	1 (n = 5) fold change	1 (n = 2) fold change	–	–	1 (n = 5) fold change
